Laboratory results from publication doi:10.1101/2025.03.14.643404, “A Bivalent Molecular Glue Linking Lysine Acetyltransferases to Oncogene-induced Cell Death” (bioRxiv, 2025).

Test system: PUMA/BBC3
Assay: Global proteome profiling in SUDHL5, PUMA/BBC3 abundance
Assay type: cell-based, human
Conditions: SUDHL5, 10 nM, 24 hours
Protocol: SUDHL5 cells (6M cells in 6 mL RPMI-1640 media supplemented with 10% FBS and 1x pen-strep) were treated with 0.1% DMSO, 10 nM TCIP3, 10 nM Neg1, 10 nM Neg2, or 250 nM dCBP1 (1000x stocks in DMSO for final 0.1% DMSO concentration) in 3 biologically independent replicates. The cells were washed twice with TBS (50 mM Tris, pH 8.5, and 150 mM NaCl) and then stored at −80 °C until use.
Lysis was performed by first thermally denaturing the samples in residual wash buffer for 5 min at 95 °C. Fresh Lysis Buffer (8 M urea, 150 mM NaCl, and 100 mM HEPES, pH 8.0, in MS-grade water) was then added, and the lysates were homogenized using needle ultrasonication and then normalized to 30 μg of 2 mg/mL by diluting with Lysis Buffer via a Bradford protein concentration assay (Bio-Rad 5000006) in technical duplicates. […]
Samples were then desalted using SOLAμ SPE HRP Peptide Desalting columns (Thermo 60209–001) with a Positive Pressure Manifold and all MS-grade reagents. […] The samples were then reconstituted in 0.1% FA in water and then analyzed by LC-MS/MS (see below).
The reconstituted desalted peptides were then analyzed using a nanoElute 2 UHPLC (Bruker Daltonics, Bremen, Germany) coupled to a timsTOF HT (Bruker Daltonics, Bremen, Germany) via a CaptiveSpray nano-electrospray source. […]

CNC(=O)COc1cc2cc(Nc3nc(N4CCC(C(=O)N5CCN(CCC(=O)N6CCC(n7nc(N8CCCc9cc(-c%10cnn(C)c%10)c(C(F)F)cc98)c8c7CCN(C(=O)NC)C8)CC6)CC5)CC4)ncc3Cl)cc(OC)c2n(C)c1=O [TCIP3]
PUMA/BBC3 log2(TCIP3 / DMSO fold change): 0.72
